Reference: patent US11760775B2, “Steroids and protein-conjugates thereof” (Regeneron Pharmaceuticals, Inc., priority 2016, dated 2023)
Values after ≈ are worked out from the molar mass of the structure shown. Values joined by “and” are separate entries in the source; they are usually repeats but may differ in a detail not shown here. Equal entries are not always repeated.

Tests used:
human liver cathepsin B = human liver cathepsin B (Homo sapiens (Human), UniProt P07858); test: Linker-payload cleavage in Cathepsin B assay; type: biochemical; conditions: for Conversion rate (%): Mean
Method: The linker-payloads were tested in a Cathepsin B assay. After 4 hr incubation in Cathepsin B (CapB) with and without CapB inhibitor ([…]), both linker-payloads and free payload were evaluated using LC-MS/MS.
The CapB assay procedure follows: Linker-payload stock solution (10 mM in DMSO) was spiked into incubation buffer (100 mM NaOAc, 10 mM dithiothreitol, pH5) to obtain a 50 μM substrate solution. 4 μL of 0.47 μg/μL human liver cathepsin B (Athens Research & Technology, Athens, GA) in 50 mM NaOAc, 1 mM EDTA, pH 5 was added into 196 μL of 50 μM substrate solution. The reaction mixture was incubated at 37° C. for 4 hr. Then 5 μL of acetic acid and 150 μL of acetonitrile (containing osalmid as internal standard) were added to 50/Th of reaction mixture aliquots. After vortexing, the quenched samples were frozen in a −70° C. deep freezer, followed by thawing and centrifugation at 14,000 rpm.
The CapB assay experiment included the following procedure. • 1. Preheat assay buffer: 0.1 M NaOAc/0.01 M DTT (pH 5.0) • 2. Spiking solutions for test compounds: 25 μM Spiking solutions for test compounds: Add […], of 5 mM stock solution into 398 μL of 0.1 M NaOAc/0.01 M DTT buffer (pH 5.0). • 3. Prepare 0.47m/μL Cathepsin B in 50 mM NaOAc/1 mM EDTA (pH 5.0). Put on ice. • 4. Without CA074 samples: Add […], of 0.47m/μL Cathepsin B into 196 μL of 25 μM Spiking solutions (from step 2), incubate the tubes at 37° C. • 5. With CA074 samples: Add 4 μL of 0.47m/μL Cathepsin B with 4 μL of 10 mM Inhibitor (CA074) into 196 μL of 25 μM Spiking solutions (from step 2), incubate the tubes at 37° C. • 6. After 4 hours, Aliquots of 5 μL (with CA074 and without CA074) were taken for enzyme activity test (step 15-17). Meanwhile, Aliquots of 50 μL were taken at the time point (4 h), adding 5 μL of acetic acid, and then add 150 μL of ACN (IS) to stop the reaction. • 7. After quenching, shake the plate and centrifuge them at 14000 rpm. • 8. Transfer 50 μL of the supernatant from each well into a 96-well sample plate containing 50 μL of ultra pure water (Millipore, ZMQS50F01) for LC/MS analysis.
The CapB assay experiment included the reference compounds and the following procedure. • 9. Preheat assay buffer: 100 mM Na/K phosphate, pH6.0, with 1.33 mM EDTA and 2 mM DTT. • 10. Prepare 0.024m/μL Cathepsin B: Add […] of 0.47 μg/μL Cathepsin B stock into 19 μL of assay buffer (from step 11). • 11. Add 2 μL of 0.024m/μL Cathepsin B (from step 12) to a opaque 96-well plate. • 12. Add 96 μL of assay buffer to each sample. • 13. Add 2 μL of the 10 mM substrate Z—RR-MNA(200 μM final concentration). • For negative control (with inhibitor), add 2 μL of 10 mM Inhibitor (CA074). • 14. Immediately read the samples in a kinetic mode at excitation of 340 nm/emission of 425 nm (Read the plate every 30 Second for 3 min).
Stability of Cathepsin B in incubation samples: • 15. Take Take 5 μL of incubation samples into 93 μL of assay buffer (from step 11), and then add 2 μL of 10 mM substrate (Z—RR-MNA). • 16. Incubate the samples at 37° C. for 2 min. • 17. Read the samples at excitation of 340 nm/emission of 425 nm.

[1] = Solubility in water and DMSO/water
[2] = tested on: GR activation in 293/PRLR/GRE-Luc cells (HEK293/9xUAS-Luc2P/pBind-GR/PRLR-HA high cells); test: GR co-activator luciferase reporter cell based assay in 293/PRLR/GRE-Luc cells; design: species or system human
How it was run: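 HEK293 cells stably expressing PRLR, a Gal4–GR LBD chimera and a 9×Gal4UAS-Luc2P reporter were seeded at 20,000 per well and treated with free steroid or anti-PRLR steroid ADC. Luciferase (One-Glo) was read as RLU, and EC50 was fitted by four-parameter logistic over 10 points. Minimal activation means under 10% of free-payload maximum.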

[3] = Pharmacokinetics of 4b and 6-I in mice (blood concentration-time); type: in vivo, C57BL/6j mice; design: Tmax: unit not given here; conditions: IP, 1 mg/Kg in male C57BL/6 mice, Mean
[4] = tested on: LPS-induced cytokine release (TNF-α); test: Mouse model of LPS induced cytokine release (TNF-α in plasma); type: in vivo, C57BL/6j mice; conditions: for TNF-a: plasma 2 hr post LPS challenge, individual mice
[5] = with CA074 (Cathepsin B inhibitor), 4 hr incubation
[6] = without CA074, 4 hr incubation with Cathepsin B

## CCCC1O[C@@H]2C[C@H]3[C@@H]4C[C@H](F)C5=CC(=O)C=C[C@]5(C)[C@@]4(F)[C@@H](O)C[C@]3(C)[C@]2(C(=O)COc2ccc(NC(=O)[C@H](C)NC(=O)[C@@H](NC(=O)[C@@H](N)CCCCNC(=O)COC3C#CCCCCC3)C(C)C)cc2)O1 (stereo partly drawn) [LP102]
Human liver cathepsin B; [5]
  Conversion rate (%): <1.00%
Human liver cathepsin B; [6]
  Conversion rate (%): 22.72%

## CCCC1O[C@@H]2C[C@H]3[C@@H]4C[C@H](F)C5=CC(=O)C=C[C@]5(C)[C@@]4(F)[C@@H](O)C[C@]3(C)[C@]2(C(=O)CNC(=O)OCc2ccc(NC(=O)[C@H](CCCNC(N)=O)NC(=O)[C@@H](NC(=O)[C@@H](N)CCCCNC(=O)COC3C#CCCCCC3)C(C)C)cc2)O1 (stereo partly drawn) [LP101]
Human liver cathepsin B; [5]
  Conversion rate (%): <1.00%
Human liver cathepsin B; [6]
  Conversion rate (%): 48.20%

## CCCC1O[C@@H]2C[C@H]3[C@@H]4C[C@H](F)C5=CC(=O)C=C[C@]5(C)[C@@]4(F)[C@@H](O)C[C@]3(C)[C@]2(C(=O)COc2ccc(NC(=O)OCc3ccc(NC(=O)[C@H](CCCNC(N)=O)NC(=O)[C@@H](NC(=O)[C@@H](N)CCCCNC(=O)COC4C#CCCCCC4)C(C)C)cc3)cc2)O1 (stereo partly drawn) [LP103]
Human liver cathepsin B; [5]
  Conversion rate (%): <1.00%
Human liver cathepsin B; [6]
  Conversion rate (%): 29.0%

## CCCC1O[C@@H]2C[C@H]3[C@@H]4C[C@H](F)C5=CC(=O)C=C[C@]5(C)[C@@]4(F)[C@@H](O)C[C@]3(C)[C@]2(C(=O)CNC(=O)OCc2ccc(NC(=O)[C@H](CCCNC(N)=O)NC(=O)[C@@H](NC(=O)CCOCCOCCOCCOCCNC(=O)CCC(=O)N3Cc4ccccc4C#Cc4ccccc43)C(C)C)cc2)O1 (stereo partly drawn) [LP112]
Human liver cathepsin B; [5]
  Conversion rate (%): <1.00%
Human liver cathepsin B; [6]
  Conversion rate (%): 20.8%

## CCC[C@@H]1O[C@@H]2C[C@H]3[C@@H]4CCC5=CC(=O)C=C[C@]5(C)[C@H]4[C@@H](O)C[C@]3(C)[C@]2(C(=O)COc2ccc(NC(=O)[C@H](C)NC(=O)[C@@H](NC(=O)CCOCCOCCOCCOCCNC(=O)CCC(=O)N3Cc4ccccc4C#Cc4ccccc43)C(C)C)cc2)O1 [LP7]
[1]; 20% DMSO in water, aqueous with cosolvent or surfactant or cyclodextrin
  solubility: 60 µg/mL (≈ 48.9 µM)
[1]; 30% DMSO in water, aqueous with cosolvent or surfactant or cyclodextrin
  solubility: 70 µg/mL (≈ 57.1 µM)
[1]; water
  solubility: < 100 µg/mL

## CCCC1O[C@@H]2C[C@H]3[C@@H]4C[C@H](F)C5=CC(=O)C=C[C@]5(C)[C@@]4(F)[C@@H](O)C[C@]3(C)[C@]2(C(=O)CNC(=O)OCc2ccc(NC(=O)[C@H](CCCNC(N)=O)NC(=O)[C@@H](NC(=O)[C@@H](CCCCNC(=O)COC3CCCCCc4c3nnn4CC3OC4OC5C(CO)OC(OC6C(CO)OC(OC7C(CO)OC(OC8C(CO)OC(OC9C(CO)OC(OC3C(O)C4O)C(O)C9O)C(O)C8O)C(O)C7O)C(O)C6O)C(O)C5O)NC(=O)CCOCCOCCOCCOCCNC(=O)CCC(=O)N3Cc4ccccc4C#Cc4ccccc43)C(C)C)cc2)O1 (stereo partly drawn) [LP104]
Human liver cathepsin B; 4 hr incubation, LC-MS/MS
  Cleavage by Cathepsin B and payload release: could be cleaved by CapB and released more payload (4b)
Human liver cathepsin B; [5]
  Conversion rate (%): <1.00%
Human liver cathepsin B; [6]
  Conversion rate (%): 29.0%

## CCC[C@@H]1O[C@@H]2C[C@H]3[C@@H]4CCC5=CC(=O)C=C[C@]5(C)[C@H]4[C@@H](O)C[C@]3(C)[C@]2(C(=O)COc2ccc(NC(=O)[C@H](C)NC(=O)[C@@H](NC(=O)[C@@H](CCCCNC(=O)COC3CCCCCc4c3nnn4CC3OC4OC5C(CO)OC(OC6C(CO)OC(OC7C(CO)OC(OC8C(CO)OC(OC9C(CO)OC(OC3C(O)C4O)C(O)C9O)C(O)C8O)C(O)C7O)C(O)C6O)C(O)C5O)NC(=O)CCOCCOCCOCCOCCNC(=O)CCC(=O)N3Cc4ccccc4C#Cc4ccccc43)C(C)C)cc2)O1 (stereo partly drawn) [LP16]
[1]; 10% DMSO in water, aqueous with cosolvent or surfactant or cyclodextrin
  solubility: 100 µg/mL (≈ 39.7 µM)

## CCCC1O[C@@H]2C[C@H]3[C@@H]4C[C@H](F)C5=CC(=O)C=C[C@]5(C)[C@@]4(F)[C@@H](O)C[C@]3(C)[C@]2(C(=O)COc2ccc(N)cc2)O1 (stereo partly drawn) [Compound 6-I, (1S,2S,4R,8S,9S,11S,12R,13S,19S)-8-[2-(4-Aminophenoxy)acetyl]-12,19-difluoro-11-hydroxy-9,13-dimethyl-6-propyl-5,7-dioxapentacyclo[10.8.0.0^2,90.0^4,80.0^13,118]icosa-14,17-dien-16-one]
[2]; Homo sapiens, HEK293, read-out: HEK293/9xUAS-Luc2P/pBind-GR/PRLR-HA high cells EC50
  EC50: < 10 nM
[2]; fold activation vs Budesonide
  HEK293/9xUAS-Luc2P/pBind-GR/PRLR-HA high cells activation relative to Budesonide: Full
[3]
  Tmax: 0.250
[3]; mouse, in vivo, read-out: AUCINF
  AUC(0-inf): 113 ng·h/mL
[3]; mouse, in vivo, read-out: AUClast
  AUC(0-t): 107 ng·h/mL
[3]; mouse, in vivo, read-out: Cmax
  Cmax: 44.8 ng/mL
[3]; mouse, in vivo, read-out: Terminal t1/2 (converted)
  half-life: 1.91 h
[4]; 5 mpk ip before LPS challenge, plasma at 2 hr time point
  Inhibition of TNF-α production: time dependent inhibition
[4]; 5MPK ip (−2 h) prior to LPS
  TNF-a: 110.6 pg/mL and 30.8 pg/mL and 240.8 pg/mL
[4]; 5MPK ip (−24 h) prior to LPS
  TNF-a: 23.1 pg/mL and 997.3 pg/mL and 55.4 pg/mL
[4]; 5MPK ip (−48 h) prior to LPS
  TNF-a: 1280.1 pg/mL and 1149.4 pg/mL and 750.0 pg/mL

## CCCC1O[C@@H]2C[C@H]3[C@@H]4C[C@H](F)C5=CC(=O)C=C[C@]5(C)[C@@]4(F)[C@@H](O)C[C@]3(C)[C@]2(C(=O)COc2ccc(NC(=O)OCc3ccc(NC(=O)[C@H](CCCNC(N)=O)NC(=O)[C@@H](NC(=O)CCOCCOCCOCCOCCNC(=O)CCC(=O)N4Cc5ccccc5C#Cc5ccccc54)C(C)C)cc3)cc2)O1 (stereo partly drawn) [LP116]
Human liver cathepsin B; [5]
  Conversion rate (%): <1.00%
